# Measured values published in PubChem BioAssay (NCI).
#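 Following 48 hours of exposure in 96-well plates, responses at five concentrations were used to interpolate endpoints linearly. The concentration for 50% growth inhibition is given as GI50. TGI: total growth inhibition.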
# Assays:
# Assay in all cases: NCI-60 cell line screen, 48 h
# MDA-MB-435 = test system: MDA-MB-435
# 786-0 renal = test system: 786-0 renal
# HCC-2998 colon = test system: HCC-2998 colon
# HCT-15 colon = test system: HCT-15 colon
# A498 renal = test system: A498 renal
# SK-MEL-28 melanoma = test system: SK-MEL-28 melanoma
# HOP-92 NSCLC = test system: HOP-92 NSCLC
# SK-MEL-2 melanoma = test system: SK-MEL-2 melanoma
# SR leukemia = test system: SR leukemia
# HOP-62 NSCLC = test system: HOP-62 NSCLC
# COLO 205 colon = test system: COLO 205 colon
# NCI-H522 lung = test system: NCI-H522 lung
# CCRF-CEM leukemia = test system: CCRF-CEM leukemia
# IGROV1 ovarian = test system: IGROV1 ovarian
# KM12 colon = test system: KM12 colon
# A549 NSCLC = test system: A549 NSCLC
# PC-3 prostate = test system: PC-3 prostate
# TK-10 renal = test system: TK-10 renal
# U251 CNS = test system: U251 CNS
# SN12C renal = test system: SN12C renal
# UO-31 renal = test system: UO-31 renal
# SF-268 CNS = test system: SF-268 CNS
# LOX IMVI melanoma = test system: LOX IMVI melanoma
# SK-MEL-5 melanoma = test system: SK-MEL-5 melanoma
# OVCAR-5 ovarian = test system: OVCAR-5 ovarian
# NCI-H226 lung = test system: NCI-H226 lung
# DU-145 prostate = test system: DU-145 prostate
# RPMI-8226 leukemia = test system: RPMI-8226 leukemia
# MOLT-4 leukemia = test system: MOLT-4 leukemia
# T-47D breast = test system: T-47D breast
# HCT-116 colon = test system: HCT-116 colon
# MALME-3M melanoma = test system: MALME-3M melanoma
# UACC-62 melanoma = test system: UACC-62 melanoma
# NCI/ADR-RES ovarian = test system: NCI/ADR-RES ovarian
# HS 578T breast = test system: HS 578T breast
# OVCAR-3 ovarian = test system: OVCAR-3 ovarian
# K-562 leukemia = test system: K-562 leukemia
# CAKI-1 renal = test system: CAKI-1 renal
# SF-295 CNS = test system: SF-295 CNS
# MCF7 breast = test system: MCF7 breast
# OVCAR-4 ovarian = test system: OVCAR-4 ovarian
# SNB-19 CNS = test system: SNB-19 CNS
# SK-OV-3 ovarian = test system: SK-OV-3 ovarian
# NCI-H460 lung = test system: NCI-H460 lung
# NCI-H23 lung = test system: NCI-H23 lung
# OVCAR-8 ovarian = test system: OVCAR-8 ovarian
# M14 melanoma = test system: M14 melanoma
# RXF 393 renal = test system: RXF 393 renal
# ACHN renal = test system: ACHN renal
# EKVX NSCLC = test system: EKVX NSCLC
# UACC-257 melanoma = test system: UACC-257 melanoma
# SW-620 colon = test system: SW-620 colon
# SNB-75 CNS = test system: SNB-75 CNS
compound,measurement,setting,value
O=C1C(Nc2cccc(O)c2)=C(Sc2ccc(Cl)cc2)C(=O)N1Cc1ccccc1,GI50,MDA-MB-435,6.43 µM
same,TGI,MDA-MB-435,20 µM
same,GI50,786-0 renal,17.8 µM
same,TGI,786-0 renal,50 µM
same,GI50,HCC-2998 colon,2940 nM
same,TGI,HCC-2998 colon,7.23 µM
same,GI50,HCT-15 colon,10.2 µM
same,TGI,HCT-15 colon,33.9 µM
same,GI50,A498 renal,10.3 µM
same,TGI,A498 renal,25.6 µM
same,GI50,SK-MEL-28 melanoma,11 µM
same,TGI,SK-MEL-28 melanoma,40.9 µM
same,GI50,HOP-92 NSCLC,4.73 µM
same,TGI,HOP-92 NSCLC,30.7 µM
same,GI50,SK-MEL-2 melanoma,28.3 µM
same,TGI,SK-MEL-2 melanoma,> 100 µM
same,GI50,SR leukemia,3.41 µM
same,TGI,SR leukemia,14.1 µM
same,GI50,HOP-62 NSCLC,15.8 µM
same,TGI,HOP-62 NSCLC,35.7 µM
same,GI50,COLO 205 colon,28.2 µM
same,TGI,COLO 205 colon,> 100 µM
same,GI50,NCI-H522 lung,21.3 µM
same,TGI,NCI-H522 lung,> 100 µM
same,GI50,CCRF-CEM leukemia,4.08 µM
same,TGI,CCRF-CEM leukemia,34.8 µM
same,GI50,IGROV1 ovarian,26.8 µM
same,TGI,IGROV1 ovarian,> 100 µM
same,GI50,KM12 colon,10.6 µM
same,TGI,KM12 colon,27.8 µM
same,GI50,A549 NSCLC,5.38 µM
same,TGI,A549 NSCLC,35.9 µM
same,GI50,PC-3 prostate,4.66 µM
same,TGI,PC-3 prostate,24.7 µM
same,GI50,TK-10 renal,16.7 µM
same,TGI,TK-10 renal,31.8 µM
same,GI50,U251 CNS,10.3 µM
same,TGI,U251 CNS,29.4 µM
same,GI50,SN12C renal,15.8 µM
same,TGI,SN12C renal,55.1 µM
same,GI50,UO-31 renal,7.93 µM
same,TGI,UO-31 renal,> 100 µM
same,GI50,SF-268 CNS,8.73 µM
same,TGI,SF-268 CNS,44.6 µM
same,GI50,LOX IMVI melanoma,8.7 µM
same,TGI,LOX IMVI melanoma,29.1 µM
same,GI50,SK-MEL-5 melanoma,8.44 µM
same,TGI,SK-MEL-5 melanoma,24.7 µM
same,GI50,OVCAR-5 ovarian,21.1 µM
same,TGI,OVCAR-5 ovarian,55 µM
same,GI50,NCI-H226 lung,32.6 µM
same,TGI,NCI-H226 lung,> 100 µM
same,GI50,DU-145 prostate,12 µM
same,TGI,DU-145 prostate,33.3 µM
same,GI50,RPMI-8226 leukemia,2230 nM
same,TGI,RPMI-8226 leukemia,7.42 µM
same,GI50,MOLT-4 leukemia,3.05 µM
same,TGI,MOLT-4 leukemia,28.3 µM
same,GI50,T-47D breast,29.1 µM
same,TGI,T-47D breast,> 100 µM
same,GI50,HCT-116 colon,5.45 µM
same,TGI,HCT-116 colon,33.2 µM
same,GI50,MALME-3M melanoma,3.81 µM
same,TGI,MALME-3M melanoma,17.8 µM
same,GI50,UACC-62 melanoma,10.4 µM
same,TGI,UACC-62 melanoma,27.2 µM
same,GI50,NCI/ADR-RES ovarian,7.21 µM
same,TGI,NCI/ADR-RES ovarian,36.1 µM
same,GI50,HS 578T breast,13.3 µM
same,TGI,HS 578T breast,58.1 µM
same,GI50,OVCAR-3 ovarian,10.6 µM
same,TGI,OVCAR-3 ovarian,28.2 µM
same,GI50,K-562 leukemia,3.81 µM
same,TGI,K-562 leukemia,29.6 µM
same,GI50,CAKI-1 renal,18.6 µM
same,TGI,CAKI-1 renal,38.9 µM
same,GI50,SF-295 CNS,7.5 µM
same,TGI,SF-295 CNS,24.9 µM
same,GI50,MCF7 breast,5.86 µM
same,TGI,MCF7 breast,> 100 µM
same,GI50,OVCAR-4 ovarian,14.1 µM
same,TGI,OVCAR-4 ovarian,> 100 µM
same,GI50,SNB-19 CNS,25.1 µM
same,TGI,SNB-19 CNS,> 100 µM
same,GI50,SK-OV-3 ovarian,12.6 µM
same,TGI,SK-OV-3 ovarian,30.6 µM
same,GI50,NCI-H460 lung,5.61 µM
same,TGI,NCI-H460 lung,> 100 µM
same,GI50,NCI-H23 lung,6.77 µM
same,TGI,NCI-H23 lung,37.5 µM
same,GI50,OVCAR-8 ovarian,6.03 µM
same,TGI,OVCAR-8 ovarian,34.8 µM
same,GI50,M14 melanoma,6.94 µM
same,TGI,M14 melanoma,38.5 µM
same,GI50,RXF 393 renal,3.9 µM
same,TGI,RXF 393 renal,21.2 µM
same,GI50,ACHN renal,9.33 µM
same,TGI,ACHN renal,27 µM
CN(C)S(=O)(=O)c1cccc(-c2nc3sc4c(c3c(=O)[nH]2)CCCC4)c1,GI50,HCT-15 colon,> 100 µM
same,TGI,HCT-15 colon,> 100 µM
same,GI50,SK-MEL-28 melanoma,> 100 µM
same,TGI,SK-MEL-28 melanoma,> 100 µM
same,GI50,HOP-62 NSCLC,3.73 µM
same,TGI,HOP-62 NSCLC,> 100 µM
same,GI50,COLO 205 colon,> 100 µM
same,TGI,COLO 205 colon,> 100 µM
same,GI50,NCI-H522 lung,> 100 µM
same,TGI,NCI-H522 lung,> 100 µM
same,TGI,CCRF-CEM leukemia,> 100 µM
same,GI50,EKVX NSCLC,> 100 µM
same,TGI,EKVX NSCLC,> 100 µM
same,GI50,SF-268 CNS,3.24 µM
same,TGI,SF-268 CNS,> 100 µM
same,GI50,UACC-257 melanoma,> 100 µM
same,TGI,UACC-257 melanoma,> 100 µM
same,GI50,SK-MEL-5 melanoma,> 100 µM
same,TGI,SK-MEL-5 melanoma,> 100 µM
same,GI50,NCI-H226 lung,2.38 µM
same,TGI,NCI-H226 lung,> 100 µM
same,GI50,RPMI-8226 leukemia,> 100000 nM
same,TGI,RPMI-8226 leukemia,> 100 µM
same,GI50,MOLT-4 leukemia,> 100 µM
same,TGI,MOLT-4 leukemia,> 100 µM
same,GI50,UACC-62 melanoma,> 100 µM
same,TGI,UACC-62 melanoma,> 100 µM
same,GI50,NCI/ADR-RES ovarian,2.83 µM
same,TGI,NCI/ADR-RES ovarian,> 100 µM
same,GI50,HS 578T breast,2.98 µM
same,TGI,HS 578T breast,> 100 µM
same,GI50,K-562 leukemia,> 100 µM
same,TGI,K-562 leukemia,> 100 µM
same,GI50,CAKI-1 renal,> 100 µM
same,TGI,CAKI-1 renal,> 100 µM
same,GI50,SF-295 CNS,1.35 µM
same,TGI,SF-295 CNS,4.01 µM
same,GI50,MCF7 breast,> 100 µM
same,TGI,MCF7 breast,> 100 µM
same,GI50,SNB-19 CNS,2.91 µM
same,TGI,SNB-19 CNS,> 100 µM
same,GI50,NCI-H460 lung,0.931 µM
same,TGI,NCI-H460 lung,> 100 µM
same,GI50,OVCAR-8 ovarian,1.52 µM
same,TGI,OVCAR-8 ovarian,> 100 µM
same,GI50,M14 melanoma,> 100 µM
same,TGI,M14 melanoma,> 100 µM
same,GI50,SW-620 colon,1780 nM
same,TGI,SW-620 colon,> 100 µM
O=C(Nc1ccc([N+](=O)[O-])cc1)c1ccc([N+](=O)[O-])cc1,TGI,SNB-75 CNS,> 100 µM
same,TGI,SF-295 CNS,> 100 µM
